Counter-ions that a name gives are not always drawn.
These molecules were tested against T1, A1 receptor (Homo sapiens, UniProt P30542) (assay: Adenosine A1 receptor affinity (Ki potency)).
T1 sequence (P30542 1-326): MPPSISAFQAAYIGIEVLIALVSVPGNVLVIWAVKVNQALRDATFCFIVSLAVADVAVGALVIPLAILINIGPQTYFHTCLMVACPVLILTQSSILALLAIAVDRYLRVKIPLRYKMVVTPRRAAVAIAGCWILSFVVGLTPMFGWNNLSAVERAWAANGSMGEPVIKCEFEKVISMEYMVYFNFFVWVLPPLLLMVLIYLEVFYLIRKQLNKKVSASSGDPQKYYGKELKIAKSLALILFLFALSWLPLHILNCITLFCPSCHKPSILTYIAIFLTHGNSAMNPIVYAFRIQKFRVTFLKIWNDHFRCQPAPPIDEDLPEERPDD
Assay type: binding
Excerpt: As used herein, the term “A1 agonist” refers to an A1 agonist that has an affinity to the A1 receptor while simultaneously having a lower affinity for the A2 and A3 adenosine receptors.

Ki [nM] | SMILES
1.32 | O=[N+]([O-])OC[C@H]1O[C@@H](n2cnc3c(NC4CCCCC4)ncnc32)[C@H](O)[C@@H]1O [Compound E, ((2R,3S,4R,5R)-5-(6-(cyclohexylamino)-9H-purin-9-yl)-3,4-dihydroxytetrahydrofuran-2-yl)methyl nitrate]
1.47 | O=[N+]([O-])OC[C@H]1O[C@@H](n2cnc3c(NC4CC5CCC4C5)ncnc32)[C@H](O)[C@@H]1O (stereo partly drawn) [Compound F, ((2R,3S,4R,5R)-5-(6-(bicycle-[2.2.1]-heptan-2-ylamino)-9H-purin-9-yl)-3,4-dihydroxytetrahydrofuran-2-yl)methyl nitrate]
10.6 | O=[N+]([O-])OC[C@H]1O[C@@H](n2cnc3c(NC4CCOC4)ncnc32)[C@H](O)[C@@H]1O (stereo partly drawn) [Compound D, ((2R,3S,4R,5R)-3,4-dihydroxy-5-(6-(tetrahydrofuran-3-ylamino)-9H-purin-9-yl)tetrahydrofuran-2-yl)methyl nitrate]

SMILES | Ki [nM]
O=S(=O)(O)OC[C@H]1O[C@@H](n2cnc3c(NC4CCCCC4)nc(Cl)nc32)[C@H](O)[C@@H]1O [Compound G, sodium((2R,3S,4R,5R)-5-(2-chloro-6-(cyclohexylamino)-9H-purin-9-yl)-3,4-dihydroxytetrahydrofuran-2-yl)methyl sulfate] | 1.36
O=S(=O)(O)OC[C@H]1O[C@@H](n2cnc3c(NC4CCCC4)ncnc32)[C@H](O)[C@@H]1O [Compound C, sodium((2R,3S,4R,5R)-5-(6-(cyclopentylamino)-9H-purin-9-yl)-3,4-dihydroxytetrahydrofuran-2-yl)methyl sulfate] | 4.05
